Test results as given in patent US5189169A (priority 1991, dated 1993).
“And” between values parts separate entries of the source, which are not always exact repeats. Equal entries are not always repeated.

Tests used:
[1] = system: four grassy weeds: wild oat, watergrass, green foxtail and crabgrass; assay: Post-emergence herbicidal activity, grassy weeds (Table III); assay type: in vivo; conditions: 2.24 kg/ha, 2-3 weeks after treatment
Procedure: (§1) The herbicidal effect was observed by comparing the extent of weed control in test flats treated with the compounds against that occurring in similar non-treated control flats. All were applied at 3.57 lb/A (4 kg/ha) to pre-emergence and post-emergence screening flats. An 80 gal/A (748.3 1/ha) spray volume was utilized. Post-emergence flats were seeded 12 days prior to treatment. Pre-emergence flats were seeded one day prior to treatment. Overhead watering of pre-emergence flats and soil surface watering of post-emergence flats, so as to avoid wetting the foliage, were carried out for the duration of the test.
(§2) Weed seeds were planted in a flat at a seed depth of 0.5 inch (1.3 cm). Soil for flats was prepared using loam soil fortified with 17-17-17 fertilizer (N-P2 O5 -K2 O on a weight basis) and Captan 80W fungicide. The test weeds were as follows:
(§3) The spray solutions were prepared by dissolving 240 mg of test compound in 20 ml of acetone containing 1% polyoxyethylene sorbitan monolaurate emulsifier, then adding 20 ml of water to the resulting solution. The spray solutions were applied using a linear spray table. Pre-emergence flats are raised to the level of the post-emergence foliage canopy by setting the flats on a wooden block.
(§4) The degree of weed control was visually assessed and recorded as percentage control compared to the growth of the same species in an untreated check flat of the same age. The rating scale ranges from 0 to 100%, where 0 equals no effect with plant growth equal to the untreated control, and 100 equals complete kill.
(§5) Compounds 68 to 145 in Table I were tested generally similarly to Compounds No. 1 to 67 with the following differences: The rate of application was 2 lb/acre (2.24 kg/ha), no 6-day evaluations were made, and the weeds were:
Four grassy weeds: wild oat, watergrass, green foxtail and crabgrass (Digitaria sanguinalis);
(§6) Ratings were taken 2-3 weeks after treatment.

[2] = system: three broadleaf weeds: wild mustard, redroot pigweed and curly dock; assay: Post-emergence herbicidal activity, broadleaf weeds (Table III); assay type: in vivo, Brassica kaber, Amaranthus retroflexus, Rumex crispus; conditions: 2.24 kg/ha, 2-3 weeks after treatment
Procedure: as §1, §2, §3, §4, §5
Three broadleaf weeds: wild mustard, redroot pigweed (Amaranthus retroflexus) and curly dock (Rumex crispus).
as §6

[3] = system: three broadleaf weeds (morning glory, mustard, velvetleaf); set-up: species or system Ipomoea purpurea, Brassica kaber, Abutilon theophrasti; conditions: in vivo
[4] = system: three broadleaf weeds (morning glory, mustard, velvetleaf); set-up: species or system Ipomoea purpurea, Brassica kaber, Abutilon theophrasti; conditions: in vivo; remark: listed apart in the source
yellow nutsedge [5] = system: yellow nutsedge; set-up: species or system Cyperus esculentus; conditions: in vivo
[6] = system: three grassy weeds (wild oat, watergrass, foxtail); set-up: species or system Avena fatua, Echinochloa crusgalli, Setaria viridis; conditions: in vivo
yellow nutsedge [7] = system: yellow nutsedge; set-up: species or system Cyperus esculentus; conditions: in vivo; remark: listed apart in the source

Structure (SMILES)	% Control, Post-Emergence, GR Avg. [1]	% Control, Post-Emergence, BL Avg. [2]	% Control, Pre-emergence, BL avg. [3]	% Control, Post-emergence, BL avg. [4]	% Control, Pre-emergence, NS (yellow nutsedge [5])	% Control, Pre-emergence, GR avg. [6]	% Control, Post-emergence, NS (yellow nutsedge [7])
CCCCCCSP(=O)(N(CCCC)CCCC)N(CCCC)CCCC [Compound 134]	56%	90%	–	–	–	–	–
CCCCN(CCCC)P(=O)(SCC)N(C)C (stereo not drawn) [Compound 107]	64%	98%	–	–	–	–	–
CCCCN(CCCC)P(=O)(SC(C)(C)C)N(C)C (stereo not drawn) [Compound 106]	65%	91%	–	–	–	–	–
CCCCN(CC)P(=O)(SCCC)N(CC)CC (stereo not drawn) [Compound 139]	65%	70%	–	–	–	–	–
CCCCSP(=O)(N(CCC)CCC)N(C)c1ccccc1 (stereo not drawn) [Compound 121]	59%	72%	–	–	–	–	–
CCCCSP(=O)(N(C)C)N(CCCC)CCCC (stereo not drawn) [Compound 110]	93%	98%	–	–	–	–	–
CCCCN(CCCC)P(=O)(SCCC)N(C)c1ccc(Cl)cc1OC (stereo not drawn) [Compound 18]	–	–	0%	30% and 60%	0%	0%	0%
CCCCSP(=O)(N(CC)CC)N(CC)CCCC (stereo not drawn) [Compound 141]	65%	86%	–	–	–	–	–
CCCSP(=O)(N(CCC)CCC)N(C)c1ccccc1C(C)C (stereo not drawn) [Compound 56]	–	–	6%	85% and 90%	0%	31%	0%
C=CCSP(=O)(N(C)C)N(CCCC)CCCC (stereo not drawn) [Compound 112]	56%	87%	–	–	–	–	–
CCCC(CC)SP(=O)(N(CC)CC)N(CC)CC (stereo not drawn) [Compound 105]	54.5%	73%	–	–	–	–	–
CCCN(CCC)P(=O)(SC(C)C)N(C)c1ccccc1 (stereo not drawn) [Compound 120]	50%	71%	–	–	–	–	–
CCCSP(=O)(N(CCC)CCC)N(C)c1ccc(OC)cc1C (stereo not drawn) [Compound 65]	–	–	0%	70% and 76%	0%	0%	0%
CCCSP(=O)(N(CCC)CCC)N(C)c1cc(Cl)ccc1Cl (stereo not drawn) [Compound 34]	–	–	0%	80% and 93%	0%	0%	0%
CCCCN(CC)P(=O)(SC1CCCCC1)N(CCC)CCC (stereo not drawn) [Compound 137]	53%	88%	–	–	–	–	–
CCCN(CCC)P(=O)(Sc1cccc(Cl)c1)N(CCC)CCC [Compound 60]	–	–	13%	75% and 73%	0%	0%	0%
CCCCSP(=O)(N(CCC)CCC)N1CCCCC1 (stereo not drawn) [Compound 74]	47%	100%	–	–	–	–	–
CCC(C)SP(=O)(N(CC)CC)N(CC)CC (stereo not drawn) [Compound 104]	77%	87%	–	–	–	–	–
CCCSP(=O)(N(CCC)CCC)N(C)c1cc(F)ccc1C (stereo not drawn) [Compound 67]	–	–	16%	95% and 100%	0%	0%	0%
CCCN(CCC)P(=O)(SC(C)CC)N(C)c1ccccc1 (stereo not drawn) [Compound 122]	56%	79%	–	–	–	–	–

Structure (SMILES)	% Control, Post-Emergence, GR Avg. [1]	% Control, Post-Emergence, BL Avg. [2]	% Control, Pre-emergence, BL avg. [3]	% Control, Post-emergence, BL avg. [4]	% Control, Pre-emergence, NS (yellow nutsedge [5])	% Control, Pre-emergence, GR avg. [6]	% Control, Post-emergence, NS (yellow nutsedge [7])
CCCSP(=O)(N(CC)CC)N1CCCCCC1 (stereo not drawn) [Compound 92]	62%	86%	–	–	–	–	–
CCCCCN(CCCCC)P(=O)(SCCC)N(C)c1ccc(Cl)cc1 (stereo not drawn) [Compound 17]	–	–	33%	50% and 43%	0%	57%	10% and 0%
CCCSP(=O)(N(CCC)CCC)N(C)c1ccc(C(C)C)cc1 (stereo not drawn) [Compound 58]	–	–	0%	70% and 61%	0%	0%	0%
CCCCN(CC)P(=O)(SCC)N(CC)CC (stereo not drawn) [Compound 138]	63%	69%	–	–	–	–	–
CCCCN(CC)P(=O)(SC(C)C)N(CC)CC (stereo not drawn) [Compound 140]	68%	66%	–	–	–	–	–
CCN(CC)P(=O)(SC(C)C)N1CCCCCC1 (stereo not drawn) [Compound 101]	69%	100%	–	–	–	–	–
CCCN(CCC)P(=O)(SCC)N(CC)CC (stereo not drawn) [Compound 144]	59%	78%	–	–	–	–	–
CCCSP(=O)(N(CCC)CCC)N(C)c1ccc(C#N)cc1 (stereo not drawn) [Compound 41]	–	–	0%	–	0%	0%	0%
CCCSP(=O)(N(CC)CC)N(CC)CC [Compound 68]	40%	87%	–	–	–	–	–
CCCSP(=O)(N(CCC)CCC)N1CCCCC1 (stereo not drawn) [Compound 73]	55%	87%	–	–	–	–	–
CCCCN(CC)P(=O)(SC(C)c1ccccc1)N(CC)CC (stereo not drawn) [Compound 143]	52%	69%	–	–	–	–	–
CCN(CC)P(=O)(SCc1ccccc1)N(CC)CC [Compound 94]	30%	70%	–	–	–	–	–
CCCCSP(=O)(N(CC)CC)N1CCCCCC1 (stereo not drawn) [Compound 93]	73%	99%	–	–	–	–	–
CCN(CC)P(=O)(SC(C)C)N(CC)CC [Compound 103]	67%	73%	–	–	–	–	–
CCCCN(CCCC)P(=O)(SC1CCCCC1)N(CCCC)CCCC [Compound 136]	50%	90%	–	–	–	–	–
CCCN(CCC)P(=O)(SCC)N1CCCCC1 (stereo not drawn) [Compound 72]	50%	86%	–	–	–	–	–
C=CCSP(=O)(N(CCC)CCC)N1CCCCCC1 (stereo not drawn) [Compound 100]	63%	95%	–	–	–	–	–
CCCSP(=O)(N(CCC)CCC)N(C)c1ccc(F)cc1F (stereo not drawn) [Compound 19]	–	–	0%	–	–	0%	0%
CCCCN(CCCC)P(=O)(SCc1ccccc1)N(C)C (stereo not drawn) [Compound 113]	48%	83%	–	–	–	–	–
